One may read the MIC as the smallest concentration in the dilution series that meets the test's criterion for growth inhibition. Higher therefore signals weaker potency.

≈ marks a conversion by molar mass, not a printed value.

Holding throughout (format): functional
For test [1], the system named is Staphylococcus aureus. Nature of the test: Antimicrobial activity against Staphylococcus aureus using pH 4.0 buffer as solvent by agar diffusion test.
Test [2] relates to Pseudomonas aeruginosa. The test is described as follows: Antimicrobial activity against Pseudomonas aeruginosa using pH 4.0 buffer as solvent by agar diffusion test.
Test [3] concerns Bacillus subtilis. The test is described as follows: Antimicrobial activity against Bacillus subtilis using pH 4.0 buffer as solvent by agar diffusion test. (A growth-free zone around the sample is the usual read-out of agar diffusion tests.)
Test [4] deals with Escherichia coli. Nature of the test: Antimicrobial activity against Escherichia coli using pH 4.0 buffer as solvent by agar diffusion test.
For test [5], the system named is Bacillus subtilis. The test is described as follows: Antimicrobial activity against Bacillus subtilis using distilled water as solvent by agar diffusion test.
In test [6] the test system is Staphylococcus aureus. The test is described as follows: Antimicrobial activity against Staphylococcus aureus using distilled water as solvent by agar diffusion test.
The subject of test [7] is Pseudomonas aeruginosa. Nature of the test: Antimicrobial activity against Pseudomonas aeruginosa using distilled water as solvent by agar diffusion test.
Test [8] relates to Escherichia coli. Nature of the test: Antimicrobial activity against Escherichia coli using distilled water as solvent by agar diffusion test.

Turning to `C=CC1CN(C)[C@H]2Cc3c([nH]c4ccccc34)[C@H](c3cc4c5c([nH]c4cc3OC)[C@]3(C(=O)OC)C[C@@H]4C[C@H](CC)[C@@H]3N(CC5)C4)C[C@H]1C2C(=O)OC` (some centres undefined) [CONODURAMINE], the MIC with Staphylococcus aureus [1] turned out to be 35 µg/mL (≈ 49.7 µM); against Pseudomonas aeruginosa [2], 400 µg/mL (≈ 567 µM); against Bacillus subtilis [3], 15 µg/mL (≈ 21.3 µM); in the test on Escherichia coli [4], 110 µg/mL (≈ 156 µM).
For the compound `C=CC1CN(C)[C@H]2Cc3c([nH]c4ccccc34)[C@H](c3c(OC)ccc4c5c([nH]c34)[C@]3(C(=O)OC)C[C@@H]4C[C@H](CC)[C@@H]3N(CC5)C4)C[C@H]1C2C(=O)OC` (some centres undefined) [CONODURINE], the MIC was determined as 50 µg/mL (≈ 70.9 µM) in the test on Staphylococcus aureus [1], 400 µg/mL (≈ 567 µM) in the test with Pseudomonas aeruginosa [2], 4 µg/mL (≈ 5.67 µM) against Bacillus subtilis [3] and 70 µg/mL (≈ 99.3 µM) with Escherichia coli [4].
With `C=CC1CN(C)[C@H]2Cc3c([nH]c4ccccc34)[C@H](c3cc4c5c([nH]c4cc3OC)[C@]3(C(=O)OC)C[C@@H]4C[C@H](CC)[C@@H]3N(CC5)C4O)C[C@H]1C2C(=O)OC` (some centres undefined), the MIC against Staphylococcus aureus [1] was 65 µg/mL (≈ 90.2 µM); against Pseudomonas aeruginosa [2] it was 65 µg/mL (≈ 90.2 µM); against Bacillus subtilis [3], 8 µg/mL (≈ 11.1 µM); with Escherichia coli [4], 170 µg/mL (≈ 236 µM).
For the compound `CC[C@H]1C[C@H]2C[C@@]3(C(=O)OC)c4[nH]c5cc(OC)c(OC)cc5c4CCN(C2O)[C@@H]13` (some centres undefined), the MIC is 140 µg/mL (≈ 338 µM) in the test with Staphylococcus aureus [1], above 1000 µg/mL against Pseudomonas aeruginosa [2], 60 µg/mL (≈ 145 µM) in the test on Bacillus subtilis [3] and above 1000 µg/mL in the test on Escherichia coli [4].
On to `CN[C@@H]1[C@H](O[C@H]2[C@H](O[C@H]3[C@H](O)[C@@H](O)[C@H](N=C(N)N)[C@@H](O)[C@@H]3N=C(N)N)O[C@@H](C)[C@]2(O)C=O)O[C@@H](CO)[C@H](O)[C@H]1O` [STREPTOMYCIN], for which the minimal inhibitory concentration (MIC) was 0.2 µg/mL (≈ 0.344 µM) in the test with Bacillus subtilis [5]; 5 µg/mL (≈ 8.6 µM) in the test on Staphylococcus aureus [1]; 1 µg/mL (≈ 1.72 µM) with Staphylococcus aureus [6]; 12 µg/mL (≈ 20.6 µM) against Pseudomonas aeruginosa [7]; 7 µg/mL (≈ 12 µM) against Pseudomonas aeruginosa [2]; 1 µg/mL (≈ 1.72 µM) against Bacillus subtilis [3]. The figures for the MIC against Escherichia coli [4] and against Escherichia coli [8] were 80 µg/mL (≈ 138 µM) and 0.5 µg/mL (≈ 0.86 µM), respectively.
`CC[C@H]1C[C@H]2C[C@@]3(C(=O)OC)c4[nH]c5cc(OC)ccc5c4CCN(C2O)[C@@H]13` (some centres undefined): the MIC with Staphylococcus aureus [1] came out at 500 µg/mL (≈ 1300 µM); against Pseudomonas aeruginosa [2], 300 µg/mL (≈ 780 µM); in the test on Bacillus subtilis [3], 50 µg/mL (≈ 130 µM); in the test on Escherichia coli [4], 500 µg/mL (≈ 1300 µM).
As for `C=CC1CN(C)[C@H]2Cc3c([nH]c4ccccc34)[C@H](c3c(OC)ccc4c5c([nH]c34)[C@]3(C(=O)OC)C[C@@H]4C[C@H](CC)[C@@H]3N(CC5)C4O)C[C@H]1C2C(=O)OC` (some centres undefined), the MIC was 45 µg/mL (≈ 62.4 µM) with Staphylococcus aureus [1], 150 µg/mL (≈ 208 µM) against Pseudomonas aeruginosa [2], 14 µg/mL (≈ 19.4 µM) in the test with Bacillus subtilis [3] and 750 µg/mL (≈ 1040 µM) in the test on Escherichia coli [4].
`C=CC1CN(C)[C@@H]2Cc3c([nH]c4ccccc34)[C@@H](/C=C3\c4[nH]c5ccccc5c4CN4CC[C@H]3/C(=C\C)C4)C[C@@H]1C2C(=O)OC` (some centres undefined) [VOBAPARICINE]: the MIC is 50 µg/mL (≈ 83.2 µM) with Bacillus subtilis [3] and 100 µg/mL (≈ 166 µM) in the test on Escherichia coli [4].

For the origin of these results see ChEMBL document CHEMBL1151651, “Antimicrobially active alkaloids from Tabernaemontana chippii” (1985).
